Results as given in patent US11136313B2, “Compounds, compositions, and methods for modulating CFTR” (Proteostasis Therapeutics, Inc., priority 2015, dated 2021).

Each molecule was assayed against T1, ΔF508-CFTR (Homo sapiens, UniProt P13569, DEL508-508) (assay: hBE equivalent current (Ieq) assay: AUC of equivalent chloride current after forskolin/VX-770 in primary lung epithelial cells homozygous for ΔF508). Conditions: relative to CFTR amplifier (Compound A)+VX-809 (3 uM), compound at 10 uM and Compound A at 3 uM, 24 h treatment.
T1 construct: Primary lung epithelial cells homozygous for the Cystic Fibrosis-causing ΔF508 mutation were differentiated for a minimum of 4 weeks; endogenous in cells; host or cells: primary lung epithelial cells (hBE) homozygous for ΔF508, differentiated at an air-liquid interface
T1 sequence (P13569 with tags, fused parts or gaps DEL508-508): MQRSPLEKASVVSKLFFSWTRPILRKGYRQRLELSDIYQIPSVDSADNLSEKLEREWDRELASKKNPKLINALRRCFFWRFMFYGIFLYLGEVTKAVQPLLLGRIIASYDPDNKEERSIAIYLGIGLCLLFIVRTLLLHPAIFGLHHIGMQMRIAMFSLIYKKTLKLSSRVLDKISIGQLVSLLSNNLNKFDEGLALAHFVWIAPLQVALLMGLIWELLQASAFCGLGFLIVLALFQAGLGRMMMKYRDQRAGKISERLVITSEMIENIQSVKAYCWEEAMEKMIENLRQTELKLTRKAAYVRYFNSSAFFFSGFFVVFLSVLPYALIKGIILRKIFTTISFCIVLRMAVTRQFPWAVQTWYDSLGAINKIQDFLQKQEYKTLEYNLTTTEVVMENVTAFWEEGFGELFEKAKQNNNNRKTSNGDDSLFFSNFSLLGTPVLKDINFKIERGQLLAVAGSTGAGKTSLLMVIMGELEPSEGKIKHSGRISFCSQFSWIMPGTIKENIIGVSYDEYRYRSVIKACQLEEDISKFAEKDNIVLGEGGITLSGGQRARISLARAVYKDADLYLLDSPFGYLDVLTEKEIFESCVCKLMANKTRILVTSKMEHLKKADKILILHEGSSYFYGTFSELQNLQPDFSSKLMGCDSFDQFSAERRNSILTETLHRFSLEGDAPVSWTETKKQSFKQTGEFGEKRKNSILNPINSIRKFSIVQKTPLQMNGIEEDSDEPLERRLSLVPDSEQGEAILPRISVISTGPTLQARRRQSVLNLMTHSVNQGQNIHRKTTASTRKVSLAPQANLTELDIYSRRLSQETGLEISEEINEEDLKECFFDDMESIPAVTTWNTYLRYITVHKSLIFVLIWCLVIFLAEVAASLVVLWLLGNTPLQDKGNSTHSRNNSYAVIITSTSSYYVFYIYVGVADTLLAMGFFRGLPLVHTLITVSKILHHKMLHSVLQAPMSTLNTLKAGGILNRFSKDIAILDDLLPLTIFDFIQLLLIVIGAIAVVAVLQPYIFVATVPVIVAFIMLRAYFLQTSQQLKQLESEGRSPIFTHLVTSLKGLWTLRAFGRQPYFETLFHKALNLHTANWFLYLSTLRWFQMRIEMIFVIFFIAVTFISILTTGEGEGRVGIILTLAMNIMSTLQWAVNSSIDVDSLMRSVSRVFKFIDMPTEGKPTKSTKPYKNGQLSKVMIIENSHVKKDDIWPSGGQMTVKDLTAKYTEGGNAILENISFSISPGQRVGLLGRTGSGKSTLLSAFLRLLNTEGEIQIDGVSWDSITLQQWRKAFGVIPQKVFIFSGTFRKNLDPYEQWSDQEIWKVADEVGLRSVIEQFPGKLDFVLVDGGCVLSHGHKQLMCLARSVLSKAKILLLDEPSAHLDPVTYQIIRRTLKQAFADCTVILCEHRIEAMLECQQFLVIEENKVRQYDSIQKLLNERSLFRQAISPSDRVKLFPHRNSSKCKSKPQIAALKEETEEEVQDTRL
Assay type: cell-based
How it was run: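 Readout is the increase over vehicle in equivalent chloride current AUC from forskolin/VX-770 addition to bumetanide, measured by current clamp at 36 °C after benzamil block of ENaC. Cultures were homozygous ΔF508 primary lung epithelium grown ≥4 weeks at air-liquid interface and exposed basolaterally to compound for 24 h.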

Row | Compound | Activity
1 | Cc1c(-c2cc(C(=O)[O-])c3c(O[C@H]4C[C@@H](c5ccccc5)C4)ccc(C)c3n2)sc2ccccc12.[Na+] [Compound 284, Sodium 8-Methyl-2-(3-methyl-1-benzothiophen-2-yl)-5-[(1s,3s)-3-phenylcyclobutoxy]quinoline-4-carboxylate] | ++ (activity>50% of CFTR amplifier+VX-809 (3 uM) with compound at 10 uM and Compound A at 3 uM)
2 | Cc1c(-c2cc(C(=O)[O-])c3c(O[C@H](C)c4ccc(C5COC5)cc4)ccc(C)c3n2)oc2ccccc12.[Na+] [Compound 285, Sodium 8-Methyl-2-(3-methyl-1-benzofuran-2-yl)-5-[(1R)-1-[4-(oxetan-3-yl)phenyl]ethoxy]quinoline-4-carboxylate] | ++ (activity>50% of CFTR amplifier+VX-809 (3 uM) with compound at 10 uM and Compound A at 3 uM)
3 | Cc1c(-c2cc(C(=O)[O-])c3c(O[C@@H](C)c4ccc(C5COC5)cc4)ccc(C)c3n2)oc2ccccc12.[Na+] [Compound 286, Sodium 8-Methyl-2-(3-methyl-1-benzofuran-2-yl)-5-[(1S)-1-[4-(oxetan-3-yl)phenyl]ethoxy]quinoline-4-carboxylate] | ++ (activity>50% of CFTR amplifier+VX-809 (3 uM) with compound at 10 uM and Compound A at 3 uM)
4 | Cc1c(-c2cc(C(=O)[O-])c3c(OCc4ccccc4F)ccc(C)c3n2)sc2ccccc12.[Na+] [Compound 289, Sodium 5-[(2-Fluorophenyl)methoxy]-8-methyl-2-(3-methyl-1-benzothiophen-2-yl)quinoline-4-carboxylate] | ++ (activity>50% of CFTR amplifier+VX-809 (3 uM) with compound at 10 uM and Compound A at 3 uM)
5 | Cc1c(-c2cc(C(=O)[O-])c3c(OCc4cccc(F)c4)ccc(C)c3n2)sc2ccccc12.[Na+] [Compound 290, Sodium 5-[(3-Fluorophenyl)methoxy]-8-methyl-2-(3-methyl-1-benzothiophen-2-yl)quinoline-4-carboxylate] | ++ (activity>50% of CFTR amplifier+VX-809 (3 uM) with compound at 10 uM and Compound A at 3 uM)
6 | Cc1c(-c2cc(C(=O)[O-])c3c(OCc4ccc(F)cc4)ccc(C)c3n2)sc2ccccc12.[Na+] [Compound 291, Sodium 5-[(4-Fluorophenyl)methoxy]-8-methyl-2-(3-methyl-1-benzothiophen-2-yl)quinoline-4-carboxylate] | ++ (activity>50% of CFTR amplifier+VX-809 (3 uM) with compound at 10 uM and Compound A at 3 uM)
7 | COc1ccccc1COc1ccc(C)c2nc(-c3sc4ccccc4c3C)cc(C(=O)[O-])c12.[Na+] [Compound 292, Sodium 5-[(2-Methoxyphenyl)methoxy]-8-methyl-2-(3-methyl-1-benzothiophen-2-yl)quinoline-4-carboxylate] | ++ (activity>50% of CFTR amplifier+VX-809 (3 uM) with compound at 10 uM and Compound A at 3 uM)
8 | COc1cccc(COc2ccc(C)c3nc(-c4sc5ccccc5c4C)cc(C(=O)[O-])c23)c1.[Na+] [Compound 293, Sodium 5-[(3-Methoxyphenyl)methoxy]-8-methyl-2-(3-methyl-1-benzothiophen-2-yl)quinoline-4-carboxylate] | ++ (activity>50% of CFTR amplifier+VX-809 (3 uM) with compound at 10 uM and Compound A at 3 uM)
9 | Cc1c(-c2cc(C(=O)[O-])c3c(OCc4c(F)cccc4F)ccc(C)c3n2)sc2ccccc12.[Na+] [Compound 294, Sodium 5-[(2,6-Difluorophenyl)methoxy]-8-methyl-2-(3-methyl-1-benzothiophen-2-yl)quinoline-4-carboxylate] | ++ (activity>50% of CFTR amplifier+VX-809 (3 uM) with compound at 10 uM and Compound A at 3 uM)
10 | Cc1c(-c2cc(C(=O)[O-])c3c(OCc4ccc5c(c4)OCO5)ccc(C)c3n2)sc2ccccc12.[Na+] [Compound 295, Sodium 5-(2H-1,3-Benzodioxol-5-ylmethoxy)-8-methyl-2-(3-methyl-1-benzothiophen-2-yl)quinoline-4-carboxylate] | ++ (activity>50% of CFTR amplifier+VX-809 (3 uM) with compound at 10 uM and Compound A at 3 uM)
11 | Cc1c(-c2cc(C(=O)[O-])c3c(OCc4cccc5c4OCO5)ccc(C)c3n2)sc2ccccc12.[Na+] [Compound 296] | ++ (activity>50% of CFTR amplifier+VX-809 (3 uM) with compound at 10 uM and Compound A at 3 uM)
12 | Cc1c(-c2cc(C(=O)[O-])c3c(OCc4cccc(C#N)c4)ccc(C)c3n2)sc2ccccc12.[Na+] [Compound 298, Sodium 5-[(3-Cyanophenyl)methoxy]-8-methyl-2-(3-methyl-1-benzothiophen-2-yl)quinoline-4-carboxylate] | ++ (activity>50% of CFTR amplifier+VX-809 (3 uM) with compound at 10 uM and Compound A at 3 uM)
13 | Cc1c(-c2cc(C(=O)[O-])c3c(O[C@H]4CCC[C@@H](c5ccccc5)C4)ccc(C)c3n2)oc2ccccc12.[Na+] [Compound 299] | ++ (activity>50% of CFTR amplifier+VX-809 (3 uM) with compound at 10 uM and Compound A at 3 uM)
14 | Cc1c(-c2cc(C(=O)[O-])c3c(O[C@@H]4CCC[C@H](c5ccccc5)C4)ccc(C)c3n2)oc2ccccc12.[Na+] [Compound 300] | ++ (activity>50% of CFTR amplifier+VX-809 (3 uM) with compound at 10 uM and Compound A at 3 uM)
15 | Cc1c(-c2cc(C(=O)[O-])c3c(O[C@@H]4CCC[C@@H](c5ccccc5)C4)ccc(C)c3n2)oc2ccccc12.[Na+] [Compound 301] | ++ (activity>50% of CFTR amplifier+VX-809 (3 uM) with compound at 10 uM and Compound A at 3 uM)
16 | Cc1c(-c2cc(C(=O)[O-])c3c(O[C@H]4CCC[C@H](c5ccccc5)C4)ccc(C)c3n2)oc2ccccc12.[Na+] [Compound 302] | ++ (activity>50% of CFTR amplifier+VX-809 (3 uM) with compound at 10 uM and Compound A at 3 uM)
17 | Cc1ccccc1COc1ccc(C)c2nc(-c3sc4ccccc4c3C)cc(C(=O)[O-])c12.[Na+] [Compound 303] | ++ (activity>50% of CFTR amplifier+VX-809 (3 uM) with compound at 10 uM and Compound A at 3 uM)

Row | Compound | Activity
18 | Cc1cccc(COc2ccc(C)c3nc(-c4sc5ccccc5c4C)cc(C(=O)[O-])c23)c1.[Na+] [Compound 304] | ++ (activity>50% of CFTR amplifier+VX-809 (3 uM) with compound at 10 uM and Compound A at 3 uM)
19 | Cc1cccc(C)c1COc1ccc(C)c2nc(-c3sc4ccccc4c3C)cc(C(=O)[O-])c12.[Na+] [Compound 305] | ++ (activity>50% of CFTR amplifier+VX-809 (3 uM) with compound at 10 uM and Compound A at 3 uM)
20 | Cc1c(-c2cc(C(=O)[O-])c3c(O[C@@H](CO)c4ccccc4)ccc(C)c3n2)sc2ccccc12.[Na+] [Compound 306] | ++ (activity>50% of CFTR amplifier+VX-809 (3 uM) with compound at 10 uM and Compound A at 3 uM)
21 | Cc1c(-c2cc(C(=O)[O-])c3c(O[C@H](CO)c4ccccc4)ccc(C)c3n2)sc2ccccc12.[Na+] [Compound 307] | ++ (activity>50% of CFTR amplifier+VX-809 (3 uM) with compound at 10 uM and Compound A at 3 uM)
22 | COC[C@H](Oc1ccc(C)c2nc(-c3sc4ccccc4c3C)cc(C(=O)[O-])c12)c1ccccc1.[Na+] [Compound 308] | ++ (activity>50% of CFTR amplifier+VX-809 (3 uM) with compound at 10 uM and Compound A at 3 uM)
23 | COC[C@@H](Oc1ccc(C)c2nc(-c3sc4ccccc4c3C)cc(C(=O)[O-])c12)c1ccccc1.[Na+] [Compound 309] | ++ (activity>50% of CFTR amplifier+VX-809 (3 uM) with compound at 10 uM and Compound A at 3 uM)
24 | Cc1c(-c2cc(C(=O)[O-])c3c(O[C@@H](CCO)c4ccccc4)ccc(C)c3n2)sc2ccccc12.[Na+] [Compound 310] | ++ (activity>50% of CFTR amplifier+VX-809 (3 uM) with compound at 10 uM and Compound A at 3 uM)
25 | Cc1c(-c2cc(C(=O)[O-])c3c(O[C@H](CCO)c4ccccc4)ccc(C)c3n2)sc2ccccc12.[Na+] [Compound 311] | ++ (activity>50% of CFTR amplifier+VX-809 (3 uM) with compound at 10 uM and Compound A at 3 uM)
26 | COCC[C@H](Oc1ccc(C)c2nc(-c3sc4ccccc4c3C)cc(C(=O)[O-])c12)c1ccccc1.[Na+] [Compound 312] | ++ (activity>50% of CFTR amplifier+VX-809 (3 uM) with compound at 10 uM and Compound A at 3 uM)
27 | COCC[C@@H](Oc1ccc(C)c2nc(-c3sc4ccccc4c3C)cc(C(=O)[O-])c12)c1ccccc1.[Na+] [Compound 313] | ++ (activity>50% of CFTR amplifier+VX-809 (3 uM) with compound at 10 uM and Compound A at 3 uM)
28 | Cc1c(-c2cc(C(=O)[O-])c3c(O[C@H]4C[C@H](C)C[C@H](C)C4)ccc(C)c3n2)sc2ccccc12.[Na+] [Compound 314] | ++ (activity>50% of CFTR amplifier+VX-809 (3 uM) with compound at 10 uM and Compound A at 3 uM)
29 | Cc1c(-c2cc(C(=O)[O-])c3c(O[C@@H]4C[C@H](C)C[C@H](C)C4)ccc(C)c3n2)sc2ccccc12.[Na+] [Compound 315] | ++ (activity>50% of CFTR amplifier+VX-809 (3 uM) with compound at 10 uM and Compound A at 3 uM)
30 | Cc1c(-c2cc(C(=O)[O-])c3c(OC4CC(C)(C)C4)ccc(C)c3n2)sc2ccccc12.[Na+] [Compound 318] | ++ (activity>50% of CFTR amplifier+VX-809 (3 uM) with compound at 10 uM and Compound A at 3 uM)
31 | Cc1c(-c2cc(C(=O)[O-])c3c(OCC4CCC4)ccc(C)c3n2)sc2ccccc12.[Na+] [Compound 319] | ++ (activity>50% of CFTR amplifier+VX-809 (3 uM) with compound at 10 uM and Compound A at 3 uM)
32 | Cc1c(-c2cc(C(=O)[O-])c3c(OC[C@H]4C[C@@](C)(O)C4)ccc(C)c3n2)sc2ccccc12.[Na+] [Compound 320] | ++ (activity>50% of CFTR amplifier+VX-809 (3 uM) with compound at 10 uM and Compound A at 3 uM)
33 | Cc1c(-c2cc(C(=O)[O-])c3c(OC[C@H]4C[C@](C)(O)C4)ccc(C)c3n2)sc2ccccc12.[Na+] [Compound 321] | ++ (activity>50% of CFTR amplifier+VX-809 (3 uM) with compound at 10 uM and Compound A at 3 uM)
34 | Cc1c(-c2cc(C(=O)[O-])c3c(OC[C@H]4CC[C@@](C)(O)CC4)ccc(C)c3n2)sc2ccccc12.[Na+] [Compound 322] | ++ (activity>50% of CFTR amplifier+VX-809 (3 uM) with compound at 10 uM and Compound A at 3 uM)
